We go through 81 molecules from the RepoRT retention time repository.

The nature of the series: HILIC, Waters ACQUITY UPLC BEH Amide, 100 × 2.1 mm, 1.7 µm; A: water + 0.125% formic acid + 10 mM ammonium formate; B: 5% water + 95% acetonitrile + 0.125% formic acid + 10 mM ammonium formate; gradient (min/%B) 0/100 2/100 7.7/70 9.5/40 10.25/30 12.75/100 17/100. Particulars: stereoisomer not certain.

As for `NC(C(=O)NC1C(=O)N2C(C(=O)O)=C(Cl)CSC12)c1ccccc1` (stereo unspecified) [Cefaclor], the LC retention time is 5.61 min.
The same measure for `NC(C(=O)NC1C(=O)N2C(C(=O)O)=C(CSc3cn[nH]n3)CSC12)c1ccc(O)cc1` (stereo unspecified) [Cefatrizine]: 7.98 min; for `C=CC1=C(C(=O)O)N2C(=O)C(NC(=O)C(=NO)c3csc(N)n3)C2SC1` (stereo unspecified) [Cefdinir]: 6.94 min; for `C=CC1=C(C(=O)O)N2C(=O)C(NC(=O)C(=NOCC(=O)O)c3csc(N)n3)C2SC1` (stereo unspecified) [Cefixime]: 7.79 min.
In the case of `COCc1c(C(C)C)nc(C(C)C)c(C=CC(O)CC(O)CC(=O)O)c1-c1ccc(F)cc1` (stereo unspecified) [Cerivastatin], the LC retention time came out at 1.18 min.
Regarding `NCC1CCC(C(=O)Oc2ccc(CCC(=O)O)cc2)CC1` (stereo unspecified) [Cetraxate], the LC retention time came out at 5.29 min.
The figure for `CN=C1CN(O)C(c2ccccc2)=c2cc(Cl)ccc2=N1` [Chlordiazepoxide] is 1.35 min.
The figure for `O=C(C=Cc1ccc(O)c(O)c1)OC1CC(O)(C(=O)O)CC(O)C1O` (stereo unspecified) [Chlorogenic acid] is 6.68 min; for `CN(C)CCC(c1ccc(Cl)cc1)c1ccccn1` (stereo unspecified) [Chlorpheniramine] it is 2.54 min; for `C[N+](C)(C)CCO` [Choline [M]+] it is 5.18 min.
The same measure for `CC1(C)CC1C(=O)NC(=CCCCCSCC(N)C(=O)O)C(=O)O` (stereo unspecified) [Cilastatin]: 7.63 min.
As to `CN(C)CCCSc1ccccc1NC(=O)C=Cc1ccccc1` [Cinanserin], the LC retention time turned out to be 2.61 min.
The figure for `O=CC=Cc1ccccc1` [Cinnamaldehyde] is 9.18 min.
The figure for `COc1cc(N)c(Cl)cc1C(=O)NC1CCN(CCCOc2ccc(F)cc2)CC1OC` (stereo unspecified) [Cisapride] is 2.28 min; for `NC(=O)NCCCC(N)C(=O)O` (stereo unspecified) [Citrulline] it is 8.74 min.
The same measure for `Nc1nc(Cl)nc2c1ncn2C1CC(O)C(CO)O1` (stereo unspecified) [Cladribine]: 1.95 min.
On to `CCC1OC(=O)C(C)C(OC2CC(C)(OC)C(O)C(C)O2)C(C)C(OC2OC(C)CC(N(C)C)C2O)C(C)(OC)CC(C)C(=O)C(C)C(O)C1(C)O` (stereo unspecified) [Clarithromycin], for which the LC retention time amounted to 3 min.
The figure for `CN1C(=O)CC(=O)N(c2ccccc2)c2cc(Cl)ccc21` [Clobazam] is 1.1 min; for `NC(=NCc1ccc(Cl)cc1)SCCCc1cnc[nH]1` [Clobenpropit] it is 6.13 min.
The same measure for `CC(C)N=c1cc2n(-c3ccc(Cl)cc3)c3ccccc3nc-2cc1Nc1ccc(Cl)cc1` [Clofazimine]: 1.78 min; for `CN(C)CCCN1c2ccccc2CCc2ccc(Cl)cc21` [Clomipramine]: 2.31 min.
The figure for `Clc1cccc(Cl)c1NC1=NCCN1` [Clonidine] is 2.85 min; for `CCOC(=O)C1C(OC(=O)c2ccccc2)CC2CCC1N2C` (stereo unspecified) [Cocaethylene] it is 2.12 min; for `COC(=O)C1C(OC(=O)c2ccccc2)CC2CCC1N2C` (stereo unspecified) [Cocaine] it is 2.2 min.
`COc1cc(C=CC=O)ccc1O` [Coniferylaldehyde]: the LC retention time was found to be 1.14 min.
The figure for `Nc1ncnc2c1ncn2C1OC(CO)CC1O` (stereo unspecified) [Cordycepin] is 3.54 min.
The figure for `CC12CCC(=O)C=C1CCC1C2C(O)CC2(C)C(C(=O)CO)CCC12` (stereo unspecified) [Corticosterone] is 1.25 min.
The same measure for `CC12CCC(=O)C=C1CCC1C2C(=O)CC2(C)C1CCC2(O)C(=O)CO` (stereo unspecified) [Cortisone]: 1.29 min; for `CC12CCC(=O)C=C1CCC1C2CCC2(C)C1CCC2(O)C(=O)CO` (stereo unspecified) [Cortodoxone]: 1.15 min; for `COc1cc2c(cc1OC)C1C(C)c3ccc(OC)c(OC)c3CN1CC2` (stereo unspecified) [Corydaline]: 1.52 min.
For `CN1C(=O)CCC1c1cccnc1` (stereo unspecified) [Cotinine], the LC retention time was 1.49 min.
The figure for `O=c1ccc2ccccc2o1` [Coumarin] is 1.08 min; for `CN(CC(=O)O)C(=N)N` [Creatine] it is 8.15 min.
On to `CN1CC(=O)NC1=N` [Creatinine], for which the LC retention time was determined as 4.93 min.
For `CC=CC(=O)N(CC)c1ccccc1C` [Crotamiton], the LC retention time worked out at 0.97 min.
In the case of `CC(C)CC1NC(=O)C2CCCN2C1=O` (stereo unspecified) [Cyclo(Leu-Pro)], the LC retention time came out at 1.29 min.
The same measure for `NC1CCCCC1` [Cyclohexanamine]: 5.1 min.
The same measure for `CN1CCC(=C2c3ccccc3C=Cc3ccccc32)CC1` [Cyproheptadine]: 2.31 min.
The figure for `NC(CCSCC(N)C(=O)O)C(=O)O` (stereo unspecified) [Cystathionine] is 9.91 min; for `NC(CS(=O)(=O)O)C(=O)O` (stereo unspecified) [Cysteic acid] it is 8.92 min; for `NC(CS)C(=O)O` (stereo unspecified) [Cysteine] it is 5.31 min.
Turning to `NC(CSSCC(N)C(=O)O)C(=O)O` (stereo unspecified) [Cystine], the LC retention time was 9.97 min.
For the molecule `Nc1ccn(C2OC(COP(=O)(O)O)C(O)C2O)c(=O)n1` (stereo unspecified) [Cytidine-5'-monophosphate], the LC retention time came out at 9.48 min.
The figure for `Nc1ccnc(=O)[nH]1` [Cytosine] is 5.9 min.
The figure for `O=c1c(-c2ccc(O)cc2)coc2cc(O)ccc12` [Daidzein] is 1.39 min.
The same measure for `CCCCCCCCCC=O` [Decanal]: 2.17 min.
For the molecule `CC(CCC(=O)O)C1CCC2C3C(=O)CC4CC(=O)CCC4(C)C3CC(=O)C12C` (stereo unspecified) [Dehydrocholic acid], the LC retention time turned out to be 1.16 min.
The figure for `CC12CCC3C(CC=C4CC(O)CCC43C)C1CCC2=O` (stereo unspecified) [Dehydroepiandrosterone] is 1.03 min; for `O=c1ccn(C2CC(O)C(COP(=O)(O)O)O2)c(=O)[nH]1` (stereo unspecified) [Deoxyuridine monophosphate] it is 8.25 min.
The same measure for `Clc1ccc2c(c1)CCc1cccnc1C2=C1CCNCC1` [Desloratadine]: 4.9 min; for `CC1CC2C3CCC4=CC(=O)C=CC4(C)C3(F)C(O)CC2(C)C1C(=O)CO` (stereo unspecified) [Desoximetasone]: 1.13 min.
The same measure for `CS(=O)CCCCC(=NO)SC1OC(CO)C(O)C(O)C1O` (stereo unspecified) [Desulfo Glucoraphanin]: 6.61 min; for `CN(C)CCC(c1ccc(Br)cc1)c1ccccn1` (stereo unspecified) [Dexbrompheniramine]: 2.56 min.
For `COc1ccc2c(c1)C13CCCCC1C(C2)N(C)CC3` (stereo unspecified) [Dextromethorphan], the LC retention time was 2.64 min.
The same measure for `CN1CCC23CCCCC2C1Cc1ccc(O)cc13` (stereo unspecified) [Dextrorphan]: 3.87 min; for `CN1C(=O)CN=C(c2ccccc2)c2cc(Cl)ccc21` [Diazepam]: 1.1 min.
The same measure for `CC1=NS(=O)(=O)c2cc(Cl)ccc2N1` [Diazoxide]: 1.09 min.
Consider `O=C(O)Cc1ccccc1Nc1c(Cl)cccc1Cl` [Diclofenac], for which the LC retention time was 1.08 min.
Regarding `COc1cc(CNC(=O)CCCCCCC(C)C)ccc1O` [Dihydrocapsaicin], the LC retention time is 1.07 min.
The same measure for `CCCCCCCCCCCCCCCC(O)C(N)CO` (stereo unspecified) [Dihydrosphingosine]: 4.47 min; for `CC(CO)CCNc1ncnc2nc[nH]c12` (stereo unspecified) [Dihydrozeatin]: 2.99 min.
The figure for `COC(=O)c1ccccc1C(=O)OC` [Dimethyl phthalate] is 1.04 min; for `CCCCCCCCOC(=O)c1ccccc1C(=O)OCCCCCCCC` [Dioctyl Phthalate] it is 0.96 min; for `CN(C)CCOC(c1ccccc1)c1ccccc1` [Diphenhydramine] it is 2.15 min.
The same measure for `CCOC(=O)C1(c2ccccc2)CCN(CCC(C#N)(c2ccccc2)c2ccccc2)CC1` [Diphenoxylate]: 1.41 min; for `O=c1c(-c2ccccc2)c1-c1ccccc1` [Diphenylcyclopropenone]: 1.01 min.
With `CCN(CC)C(=S)SSC(=S)N(CC)CC` [Disulfiram], the LC retention time amounted to 0.93 min.
The same measure for `CC(=O)OC12COC1CC(O)C1(C)C(=O)C(O)C3=C(C)C(OC(=O)C(O)C(NC(=O)OC(C)(C)C)c4ccccc4)CC(O)(C(OC(=O)c4ccccc4)C21)C3(C)C` (stereo unspecified) [Docetaxel]: 1.34 min; for `CN(CCOc1ccc(NS(C)(=O)=O)cc1)CCc1ccc(NS(C)(=O)=O)cc1` [Dofetilide]: 3.38 min.
The figure for `O=C(OC1CC2CC3CC(C1)N2CC3=O)c1c[nH]c2ccccc12` (stereo unspecified) [Dolasetron] is 1.9 min; for `COc1cc2c(cc1OC)C(=O)C(CC1CCN(Cc3ccccc3)CC1)C2` (stereo unspecified) [Donepezil] it is 2.44 min; for `NCCc1ccc(O)c(O)c1` [Dopamine] it is 6.4 min.
The figure for `CCN1CC(CCN2CCOCC2)C(c2ccccc2)(c2ccccc2)C1=O` (stereo unspecified) [Doxapram] is 1.64 min; for `CN(C)CCC=C1c2ccccc2COc2ccccc21` [Doxepin] it is 2.26 min; for `CN(C)CCOC(C)(c1ccccc1)c1ccccn1` (stereo unspecified) [Doxylamine] it is 2.45 min.
Take `O=C(CCCN1CC=C(n2c(=O)[nH]c3ccccc32)CC1)c1ccc(F)cc1` [Droperidol]: the LC retention time was found to be 3.48 min.
The same measure for `CNCCC(Oc1cccc2ccccc12)c1cccs1` (stereo unspecified) [Duloxetine]: 2.6 min; for `CC=C1N(C)C(C)CC1(c1ccccc1)c1ccccc1` (stereo unspecified) [EDDP]: 1.9 min; for `COC(=O)C1C(O)CC2CCC1N2C` (stereo unspecified) [Ecgonine methylester]: 4.18 min.
Take `CN1C2CCC1C(C(=O)O)C(O)C2` (stereo unspecified) [Ecgonine]: the LC retention time was 7.61 min.
In the case of `O=C1Nc2ccc(Cl)cc2C(C#CC2CC2)(C(F)(F)F)O1` (stereo unspecified) [Efavirenz], the LC retention time is 0.98 min.
